Experimental data reported in US10450288B2, “Hydroxy formamide derivatives and their use” (GLAXOSMITHKLINE INTELLECTUAL PROPERTY (NO.2) LIMITED, priority 2014, dated 2019).

The compounds below were run on human cardiac fibroblasts (assay: Cell-based inhibition assay of generation of procollagen I C-terminal propeptide (PICP), PICP ELISA). Conditions: Cardiac fibroblast; human cardiac fibroblasts, crowding media, 24 to 48 hr, PICP ELISA of media; read-out: pIC50, PICP cellular inhibition assay (converted).
Protocol: Cell-Based Inhibition Assay of Generation of Procollagen I C-Terminal Propeptide (PICP) and Mature Collagen:
An adaptation of the collagen deposition assay described by Chen, C. Z. C., et al., British Journal of Pharmacology, 2009, 158, 1196-1209 was used to examine effect of compounds on procollagen I processing and collagen deposition. In the adapted assay, human cardiac fibroblasts were utilized. Processing of procollagen I was determined by a PICP ELISA assay and deposition of mature collagen was determined by immunostaining.
Human cardiac fibroblasts were cultured and maintained until passage 6 in FGM-3 media (Lonza, #CC-3132) in a 37° C. humidified incubator with 5% CO2. They were then seeded in 96-well black wall, clear bottom plates at 10,000 to 15,000 cells per well in eagle's minimum essential media (EMEM, ATCC #30-2003) containing 10% fetal bovine serum (FBS, Life Technologies #10082147), 1% Glutamax (Life Technologies #35050061) and 1% Penicillin and Streptomycin (Life Technologies #15070063). These cultures were placed in 37° C. incubator. The next day, media were removed by aspiration and cells were rinsed with phosphate buffered saline. Crowding media (also called ficoll media) was prepared by adding 112.5 mg/ml of ficoll70 and 75 mg/ml ficoll400 (GE healthcare #17-0310-10 and 17-0300-10, respectively), 100 μM ascorbic acid, 1% Glutamax and 1% Penicillin and Streptomycin to EMEM media. Test compounds (dissolved in DMSO) were diluted into crowding media and then added to the cells. Final concentration of DMSO in crowding media was less than 0.3%. Cells were treated for 24 to 48 hr in a 37° C. incubator. At the end of the treatment period, cell media were collected. The level of PICP in the media were determined by a PICP ELISA assay (Quidel #8003) following the manufacturer's protocol. Potencies of test compounds were calculated by fitting PICP levels, relative to untreated controls, to log (inhibitor) vs. response equation using Graphpad Prism software 5.0 and expressed as pIC50.
`CCCCC[C@@H](C(=O)NCNC(=O)c1ccc(-c2cc(OCC)cc(C(=O)N[C@@H](CCC(=O)OC)C(=O)OC)c2)o1)[C@@H](CC)N(O)C=O` [Example 48, (S)-dimethyl 2-(3-ethoxy-5-(5-((((R)-2-((R)-1-(N-hydroxyformamido)propyl)heptanamido)methyl)carbamoyl)furan-2-yl)benzamido) pentanedioate] was tested, and the IC50 was < 3.98 µM. For `CCCCC[C@H](CN(O)C=O)C(=O)NCNC(=O)c1ccc(-c2ccc3cnn(C)c3c2)o1` [Example 106, (R)—N-((2-((N-hydroxyformamido)methyl)heptanamido)methyl)-5-(1-methyl-1H-indazol-6-yl)furan-2-carboxamide], the IC50 was < 3.98 µM. With `CCOc1cc(-c2ccc(C(=O)NCNC(=O)[C@H](CCc3ccccc3)[C@@H](CC)N(O)C=O)o2)cc(P(=O)(O)O)c1` [Example 140] the IC50 was < 3.98 µM. In the case of `CCCCC[C@H](CN(O)C=O)C(=O)NCNC(=O)c1ccc(-c2cc(OC)cc(OC)c2)o1` [Example 52, (R)-5-(3,5-dimethoxyphenyl)-N-((2-((N-hydroxyformamido)methyl)heptanamido)methyl)furan-2-carboxamide], the IC50 is reported as < 3.98 µM. With `CCCCC[C@@H](C(=O)NCNC(=O)c1ccc(-c2ccc(C(=O)NCP(=O)(O)O)cc2)o1)[C@@H](CC)N(O)C=O` [Example 143, ((4-(5-((((R)-2-((R)-1-(N-hydroxyformamido)propyl)heptanamido)methyl)carbamoyl)furan-2-yl)benzamido)methyl)phosphonic acid] the IC50 was < 3.98 µM. In the case of `CCCCC[C@H](CN(O)C=O)C(=O)NCNC(=O)c1ccc(-c2cc(OC)ccc2OC)o1` [Example 53, (R)-5-(2,5-dimethoxyphenyl)-N-((2-((N-hydroxyformamido)methyl)heptanamido)methyl)furan-2-carboxamide], the IC50 is reported as < 3.98 µM. With `CCCCC[C@@H](C(=O)NCNC(=O)c1ccc(-c2ccc(C(=O)NCP(=O)(O)O)c(C)c2)o1)[C@@H](CC)N(O)C=O` [Example 144, ((4-(5-((((R)-2-((R)-1-(N-hydroxyformamido)propyl)heptanamido)methyl)carbamoyl)furan-2-yl)-2-methylbenzamido)methyl)phosphonic acid] the IC50 was < 3.98 µM. For `CCCCC[C@H](CN(O)C=O)C(=O)NCNC(=O)c1ccc(-c2ccc(O)c(C(=O)O)c2)o1` [Example 62, (R)-2-hydroxy-5-(5-(((2-((N-hydroxyformamido)methyl)heptanamido)methyl)carbamoyl)furan-2-yl)benzoic acid], the IC50 was < 3.98 µM. `CCCCC[C@@H](C(=O)NCNC(=O)c1ccc(-c2cc(OCC)cc(C(=O)NCC(=O)O)c2)o1)[C@@H](CC)N(O)C=O` [Example 85, 2-(3-ethoxy-5-(5-((((R)-2-((R)-1-(N-hydroxy-formamido)propyl)heptanamido)methyl)carbamoyl)furan-2-yl)benzamido) acetic acid] was tested, and the IC50 was < 3.98 µM. With `CCOc1cc(C(=O)O)c(O)c(-c2ccc(C(=O)NCNC(=O)[C@H](CCc3ccccc3)[C@@H](CC)N(O)C=O)o2)c1` [Example 115, 5-ethoxy-2-hydroxy-3-(5-((((2R,3R)-3-(N-hydroxyformamido)-2-phenethylpentanamido)methyl)carbamoyl)furan-2-yl)benzoic acid] the IC50 was < 3.98 µM. With `CCCCC[C@@H](C(=O)NCNC(=O)c1ccc(-c2cc(OCC)cc(C(=O)NCCN)c2)o1)[C@@H](CC)N(O)C=O` [Example 40, 5-(3-((2-aminoethyl)carbamoyl)-5-ethoxyphenyl)-N-(((R)-2-((R)-1-(N-hydroxyformamido)propyl)heptanamido)methyl) furan-2-carboxamide] the IC50 was < 3.98 µM. With `CCCCC[C@@H](C(=O)NCNC(=O)c1ccc(-c2cc(OCC)cc(C(=O)N(CC(=O)O)CC(=O)O)c2)o1)[C@@H](CC)N(O)C=O` [Example 87, 2,2′-((3-ethoxy-5-(5-((((R)-2-((R)-1-(N-hydroxy-formamido)propyl)heptanamido)methyl)carbamoyl)furan-2-yl)benzoyl)azanediyl) diacetic acid] the IC50 was < 3.98 µM. For `CCCCC[C@@H](C(=O)NCNC(=O)c1ccc(-c2ccc(CC(=O)O)cc2)o1)[C@@H](CC)N(O)C=O` [Example 42, 2-(4-(5-((((R)-2-((R)-1-(N-hydroxyformamido)propyl)heptanamido)methyl)carbamoyl)furan-2-yl)phenyl)acetic acid], the IC50 was < 3.98 µM. In the case of `CCCCC[C@H](CN(O)C=O)C(=O)NCNC(=O)c1ccc(-c2cccc(C(=O)O)c2)o1` [Example 89, (R)-3-(5-(((2-((N-hydroxyformamido)methyl)heptanamido)methyl)carbamoyl)furan-2-yl)benzoic acid], the IC50 is reported as < 3.98 µM. With `CCCCC[C@@H](C(=O)NCNC(=O)c1ccc(-c2ccc(C3(C(=O)O)CC3)cc2)o1)[C@@H](CC)N(O)C=O` [Example 44, 1-(4-(5-((((R)-2-((R)-1-(N-hydroxyformamido)propyl)heptanamido)methyl)carbamoyl)furan-2-yl)phenyl)cyclopropane-carboxylic acid] the IC50 was < 3.98 µM. For `CCCCC[C@H](CN(O)C=O)C(=O)NCNC(=O)c1ccc(-c2cccc(S(N)(=O)=O)c2)o1` [Example 12, (R)-N-((2-((N-hydroxyformamido)methyl)heptanamido)methyl)-5-(3-sulfamoylphenyl)furan-2-carboxamide], the IC50 was < 3.98 µM. In the case of `CCCCC[C@@H](C(=O)NCNC(=O)c1ccc(-c2cc(OCC(N)=O)cc(C(=O)O)c2)o1)[C@@H](CC)N(O)C=O` [Example 131, 3-(2-amino-2-oxoethoxy)-5-(5-((((R)-2-((R)-1-(N-hydroxyformamido)propyl)heptanamido)methyl)carbamoyl)furan-2-yl)benzoic acid], the IC50 is reported as < 3.98 µM. With `CCCCC[C@H](CN(O)C=O)C(=O)NCNC(=O)c1ccc(-c2cc(OC)ccn2)o1` [Example 18, (R)-N-((2-((N-hydroxyformamido)methyl)heptanamido)methyl)-5-(4-methoxypyridin-2-yl)furan-2-carboxamide] the IC50 was < 3.98 µM.

Same assay, conditions: Homo sapiens, Cardiac fibroblast, read-out: pIC50, PICP cellular inhibition assay (converted)
In the case of `CCCCC[C@@H](C(=O)NCNC(=O)c1ccc(-c2cc(OCC)cc(P(=O)(OC)OC)c2)o1)[C@@H](CC)N(O)C=O` [Example 50, dimethyl (3-ethoxy-5-(5-((((R)-2-((R)-1-(N-hydroxyformamido)propyl)heptanamido)methyl)carbamoyl)furan-2-yl)phenyl)phosphonate], the IC50 is reported as < 3.98 µM. With `CCCCC[C@H](CN(O)C=O)C(=O)NCNC(=O)c1ccc(-c2cc(OC)cc(C(=O)O)c2)o1` [Example 29, (R)-3-(5-(((2-((N-hydroxyformamido)methyl)heptanamido)methyl)carbamoyl)furan-2-yl)-5-methoxybenzoic acid] the IC50 was < 3.98 µM. With `CCCCC[C@@H](C(=O)NCNC(=O)c1ccc(-c2ccc(F)c(CC(=O)O)c2)o1)[C@@H](CC)N(O)C=O` [Example 70, 2-(2-fluoro-5-(5-((((R)-2-((R)-1-(N-hydroxyformamido)propyl)heptanamido)methyl)carbamoyl)furan-2-yl)phenyl)acetic acid] the IC50 was < 3.98 µM. `CCCCC[C@H](CN(O)C=O)C(=O)NCNC(=O)c1ccc(-c2cccc(P(=O)(O)OC)c2)o1` [Example 95, methyl hydrogen (3-(5-((((R)-2-((N-hydroxyformamido)methyl)heptanamido)methyl)carbamoyl)furan-2-yl)phenyl)phosphonate] was tested, and the IC50 was < 3.98 µM. `CCCCC[C@@H](C(=O)NCNC(=O)c1ccc(-c2cc(CC(=O)O)cc(OCC)c2)o1)[C@@H](CC)N(O)C=O` [Example 72, 2-(3-ethoxy-5-(5-((((R)-2-((R)-1-(N-hydroxyformamido)propyl)heptanamido)methyl)carbamoyl)furan-2-yl)phenyl)acetic acid] was tested, and the IC50 was < 3.98 µM.
